According to US20180064665A1 (UNIVERSITY-INDUSTRY COOPERATION GROUP OF KYUNG HEE …, priority 2015, published 2018):
pIC50: −log10 of the molar value. Like-named read-outs stand apart in the source and are kept apart here.

Tests used:
Type in all cases: cell-based, mouse
[1] = Measurement of cell viability (MTT); settings: mouse, Raw264.7 macrophage cells, Raw264.7 cells, with LPS 1 μg/mL, mean of three measurements, read-out: Cell viability (IC50 for cell toxicity)
Description: (§1) Raw264.7 cells (macrophage cell line from mouse) were obtained from Korean Cell Line Bank (KCLB) and cultured in Dulbecco's modified Eagle's medium containing 10% FBS, penicillin (100 units/ml), streptomycin sulfate (100 μg/ml) at 37° C. and 5% CO2 in humidified environment.
(§2) Cells were collected by centrifugation and scraping, and seeded at 1×10^5 cells/well in a 96 well plate containing 100 μl of RPMI 1640 medium with 10% FBS. 3β, 4β-epoxy-8α-isobutyryloxyguaia-1(10), 11, (13)-diene-12.6α-olide was dissolved in dimethylsulfoxide (DMSO) solvent and the concentration of DMSO was not more than 0.1% in all experiments. Next day, test compounds and LPS (1 μg/mL) were added and the plate were cultured for 24 hrs. After washing cells once, 50 μl of the medium containing 5 mg/ml MTT but without FBS was added and cells were cultured at 37° C. for 4 hrs. And then, the medium was removed, formazan blue formed in the cells was dissolved in 100 μl of DMSO, and an absorbance was measured at 540 nm to obtain IC50 values for cell toxicity. […] The results are shown in the above Table 1 and the values are means of three measurements.

[2] = system: PGE2 production; experiment: Inhibitory activity on PGE2 production in LPS-treated Raw264.7 cells (PGE2 immunoassay); settings: LPS 1 μg/mL; for pIC50: mean of three measurements, read-out: Inhibition of PGE2 production IC50
Description: Raw264.7 cells (macrophage cell line from mouse) were obtained from Korean Cell Line Bank (KCLB) and cultured in Dulbecco's modified Eagle's medium (DMEM) containing 10% Fetal Bovine Serum (FBS), penicillin (100 units/mL), streptomycin sulfate (100 μg/mL) at 37° C. and 5% CO2 in humidified environment. RAW264.7 cells at 5×10^5 cells/mL were seeded at 1 mL/well in 24 wells using DMEM, left overnight, replaced with a fresh medium and then treated with a test compound of an appropriate concentration. The cells were incubated for 1 hr and then treated with LPS at 1 μg/mL and incubated for 24 hrs (or proper period). A supernatant was taken and diluted five times. 150 μL of an analysis buffer was added to Non Specific Binding (NSB) well, and 100 μL of an analysis buffer was added to zero point standard (B0) well. 100 μL of a standard sample was added to the other wells and 50 μL of PGE2 conjugate was added (excluding NSB). 50 μL of PGE2 antibody solution was added and wells were shaken for 2 hrs. Each well was suctioned and washed with a wash buffer five times. Each 200 μL of para-Nitrophenyl phosphate (pNPP) substrate was added to the all wells and the wells were stored in a bench at room temperature for 1 hr. 50 μL of stop solution was added and an absorbance was measured at 405 nm. The amount of PGE2 was quantified using the measured absorbance and a standard curve and compared to a group treated with LPS only to obtain a concentration inhibiting 50% (IC50). The results are shown in the following Table 1 and the presented values are means of three measurements.

[3] = system: Raw264.7 cells; experiment: Measurement of cell viability (MTT); settings: with LPS 1 μg/mL, 24 hrs, mean of three measurements, read-out: Cell viability (IC50 for cell toxicity)
Description: as §1, §2

O=C(Oc1ccccc1)N(NS(=O)(=O)c1ccccc1)c1ccccc1 [Comparative Example 1, N-phenyl-N′-(phenoxycarbonyl)-phenylsulfonhydrazide, reference compound]
IC50 at 24 h [1]: > 10000 nM
pIC50 ([2]; Mus musculus): 5.24
inhibition at 10 µM ([2]; Mus musculus, compound at 10 μM): 84.4%

Cc1ccc(OC(=O)NN(c2ccccc2)S(=O)(=O)c2ccc(C)cc2)cc1 [Example 2, N-phenyl-N′-(4-methylphenoxycarbonyl)-4-methylphenylsulfonhydrazide]
pIC50 [3]: < 5.00
pIC50 [2]: 6.00
Inhibition of PGE2 production % ([2]; compound at 1 μM): 49.7 (1)^ %

COc1ccccc1OC(=O)NN(c1ccccc1)S(=O)(=O)c1ccc(C)cc1 [Example 3, N-phenyl-N′-(2-methoxyphenoxycarbonyl)-4-methylphenylsulfonhydrazide]
pIC50 [3]: < 7.00
pIC50 [2]: 7.47
Inhibition of PGE2 production % ([2]; compound at 0.1 μM): 91.9 (0.1) %

COc1ccc(S(=O)(=O)N(NC(=O)Oc2ccc(OCc3ccccc3)cc2)c2ccccc2)cc1 [Example 4, N-phenyl-N′-(4-benzyloxyphenoxycarbonyl)-4-methoxyphenylsulfonhydrazide]
pIC50 [3]: < 6.00
pIC50 [2]: 7.30
Inhibition of PGE2 production % ([2]; compound at 0.1 μM): 62.8 (0.1) %

CCOc1ccc(OC(=O)NN(c2ccccc2)S(=O)(=O)c2ccc(OC)cc2)cc1 [Example 5, N-phenyl-N′-(4-ethoxyphenoxycarbonyl)-4-methoxyphenylsulfonhydrazide]
pIC50 [3]: < 7.00
pIC50 [2]: 7.69
Inhibition of PGE2 production % ([2]; compound at 0.1 μM): 94.1 (0.1) %

COc1ccc(S(=O)(=O)N(NC(=O)Oc2ccc(Oc3ccccc3)cc2)c2ccccc2)cc1 [Example 6, N-phenyl-N′-(4-phenoxyphenoxycarbonyl)-4-methoxyphenylsulfonhydrazide]
pIC50 [3]: < 7.00
pIC50 [2]: 7.77
Inhibition of PGE2 production % ([2]; compound at 0.1 μM): 93.4 (0.1) %

CCc1ccc(OC(=O)NN(c2ccccc2)S(=O)(=O)c2ccc(OC)cc2)cc1 [Example 7, N-phenyl-N′-(4-ethylphenoxycarbonyl)-4-methoxyphenylsulfonhydrazide]
pIC50 [3]: < 7.00
pIC50 [2]: 7.55
Inhibition of PGE2 production % ([2]; compound at 0.1 μM): 90.9 (0.1) %

Cc1ccc(S(=O)(=O)N(NC(=O)Oc2ccc(OCc3ccccc3)cc2)c2ccccc2)cc1 [Example 8, N-phenyl-N′-(4-benzyloxyphenoxycarbonyl)-4-methylphenylsulfonhydrazide]
pIC50 [3]: < 7.00
pIC50 [2]: 7.49
Inhibition of PGE2 production % ([2]; compound at 0.1 μM): 66.6 (0.1) %

COc1ccc(S(=O)(=O)N(NC(=O)Oc2ccc3c(c2)CCC3)c2ccccc2)cc1 [Example 9, N-phenyl-N′-(2,3-dihydro-1H-inden-5-oxycarbonyl)-4-methoxyphenylsulfonhydrazide]
pIC50 [3]: < 7.00
pIC50 [2]: 8.35
Inhibition of PGE2 production % ([2]; compound at 0.01 μM): 79.5 (0.01) %

O=C(NN(c1ccccc1)S(=O)(=O)c1ccc(Cl)cc1)Oc1ccccc1 [Example 10, N-phenyl-N′-phenoxycarbonyl-4-chlorophenylsulfonhydrazide]
pIC50 [3]: < 5.00
pIC50 [2]: 8.27
Inhibition of PGE2 production % ([2]; compound at 0.01 μM): 81.8 (0.01) %

COc1ccccc1OC(=O)NN(c1ccccc1)S(=O)(=O)c1ccc(Cl)cc1 [Example 11, N-phenyl-N′-(2-methoxyphenoxycarbonyl)-4-chlorophenylsulfonhydrazide]
pIC50 [3]: < 5.00
pIC50 [2]: 8.45
Inhibition of PGE2 production % ([2]; compound at 0.01 μM): 85.9 (0.01) %

CCc1ccc(OC(=O)NN(c2ccccc2)S(=O)(=O)c2ccc(Cl)cc2)cc1 [Example 12, N-phenyl-N′-(4-ethylphenoxycarbonyl)-4-chlorophenylsulfonhydrazide]
pIC50 [3]: < 5.00
pIC50 [2]: 8.43
Inhibition of PGE2 production % ([2]; compound at 0.01 μM): 80.5 (0.01) %

CCOc1ccc(OC(=O)NN(c2ccccc2)S(=O)(=O)c2ccc(Cl)cc2)cc1 [Example 13, N-phenyl-N′-(4-ethoxyphenoxycarbonyl)-4-chlorophenylsulfonhydrazide]
pIC50 [3]: < 5.00
pIC50 [2]: 8.30
Inhibition of PGE2 production % ([2]; compound at 0.01 μM): 74.8 (0.01) %

O=C(NN(c1ccccc1)S(=O)(=O)c1ccc(Cl)cc1)Oc1ccc(Oc2ccccc2)cc1 [Example 14, N-phenyl-N′-(4-phenoxyphenoxycarbonyl)-4-chlorophenylsulfonhydrazide]
pIC50 [3]: < 5.00
pIC50 [2]: 8.29
Inhibition of PGE2 production % ([2]; compound at 0.01 μM): 67.8 (0.01) %

O=C(NN(c1ccccc1)S(=O)(=O)c1ccc(Cl)cc1)Oc1ccc(OCc2ccccc2)cc1 [Example 15, N-phenyl-N′-(4-benzyloxyphenoxycarbonyl)-4-chlorophenylsulfonhydrazide]
pIC50 [3]: < 5.00
pIC50 [2]: 8.47
Inhibition of PGE2 production % ([2]; compound at 0.01 μM): 84.5 (0.01) %

CCCc1ccc(S(=O)(=O)N(NC(=O)Oc2ccc(Oc3ccccc3)cc2)c2ccccc2)cc1 [Example 20, N-phenyl-N′-(4-phenoxyphenoxycarbonyl)-4-n-propylphenylsulfonhydrazide]
pIC50 [3]: < 5.00
pIC50 [2]: 6.87
Inhibition of PGE2 production % ([2]; compound at 0.1 μM): 45.4 (0.1) %

O=C(NN(c1ccccc1)S(=O)(=O)c1ccc(C(F)(F)F)cc1)Oc1ccc(OCc2ccccc2)cc1 [Example 21, N-phenyl-N′-(4-benzyloxyphenoxycarbonyl)-4-trifluoromethylphenylsulfonhydrazide]
pIC50 [3]: < 7.00
pIC50 [2]: 7.33
Inhibition of PGE2 production % ([2]; compound at 0.1 μM): 65.5 (0.1) %

CC(C)(C)c1ccc(S(=O)(=O)N(NC(=O)Oc2ccc(OCc3ccccc3)cc2)c2ccccc2)cc1 [Example 22, N-phenyl-N′-(4-benzyloxyphenoxycarbonyl)-4-t-butylphenylsulfonhydrazide]
pIC50 [3]: < 7.00
pIC50 [2]: 7.24
Inhibition of PGE2 production % ([2]; compound at 0.1 μM): 69.8 (0.1) %

CC(C)(C)c1ccc(S(=O)(=O)N(NC(=O)Oc2ccc(Oc3ccccc3)cc2)c2ccccc2)cc1 [Example 23, N-phenyl-N′-(4-phenoxyphenoxycarbonyl)-4-t-butylphenylsulfonhydrazide]
pIC50 [3]: < 6.00
pIC50 [2]: 7.00
Inhibition of PGE2 production % ([2]; compound at 0.1 μM): 67.9 (0.1) %

CC(C)c1ccc(S(=O)(=O)N(NC(=O)Oc2ccc(Oc3ccccc3)cc2)c2ccccc2)cc1 [Example 24, N-phenyl-N′-(4-phenoxyphenoxycarbonyl)-4-i-propylphenylsulfonhydrazide]
pIC50 [3]: < 6.00
pIC50 [2]: 6.89
Inhibition of PGE2 production % ([2]; compound at 0.1 μM): 65.4 (0.1) %

Cc1ccc(S(=O)(=O)N(NC(=O)Oc2ccc3c(c2)CCC3)c2ccccc2)cc1 [Example 25, N-phenyl-N′-(2,3-dihydro-1H-inden-5-oxycarbonyl)-4-methylphenylsulfonhydrazide]
pIC50 [3]: < 6.00
pIC50 [2]: 7.18
Inhibition of PGE2 production % ([2]; compound at 0.1 μM): 40.4 (0.1) %

O=C(NN(c1ccccc1)S(=O)(=O)c1ccc(Cl)cc1)Oc1ccc2c(c1)CCC2 [Example 26, N-phenyl-N′-(2,3-dihydro-1H-inden-5-oxycarbonyl)-4-chlorophenylsulfonhydrazide]
pIC50 [3]: < 6.00
pIC50 [2]: 7.15
Inhibition of PGE2 production % ([2]; compound at 0.1 μM): 45.8 (0.1) %

O=C(NN(c1ccccc1)S(=O)(=O)c1ccc(C(F)(F)F)cc1)Oc1ccc2c(c1)CCC2 [Example 27, N-phenyl-N′-(2,3-dihydro-1H-inden-5-oxycarbonyl)-4-trifluorophenylsulfonhydrazide]
pIC50 [3]: < 6.00
pIC50 [2]: 7.25
Inhibition of PGE2 production % ([2]; compound at 0.1 μM): 51.1 (0.1) %

Cc1cc(C)c(S(=O)(=O)N(Nc2ccccc2)C(=O)Oc2ccc3c(c2)CCC3)c(C)c1 [Example 28]
IC50 at 24 h [1]: > 1000 nM
pIC50 ([2]; Mus musculus): 7.23
inhibition at 0.1 µM ([2]; Mus musculus, compound at 0.1 μM): 57.2%

N-phenyl-N′-(4-benzyloxyphenoxycarbonyl)-2-mesitylenesulfonhydrazide [Example 17]
pIC50 [3]: < 6.00
pIC50 [2]: 7.09
Inhibition of PGE2 production % ([2]; compound at 0.1 μM): 60.0 (0.1) %

N-phenyl-N′-(4-phenoxyphenoxycarbonyl)-2-mesitylenesulfonhydrazide [Example 16]
pIC50 [3]: < 6.00
pIC50 [2]: 6.75
Inhibition of PGE2 production % ([2]; compound at 0.1 μM): 39.8 (0.1) %
